Measured values taken from patent US20060127400A1, “Activation of regulatory T cells by alpha-melanocyte stimulating hormone” (THE SCHEPENS EYE RESEARCH INSTITUTE, INC., priority 1999, published 2006).
Entries after “also recorded” stand apart in the source; their conditions may differ. No end group written: not given here.

Tested on: primed T cells
Assay: lymphokine production by TCR-stimulated primed T cells, sandwich ELISA of culture supernatant
Type: cell-based, mouse (BALB/c)
Conditions: 48 h supernatant
Procedure: Sandwich Enzyme Linked Immunosorbent Assay (ELISA). The wells of a 96-well flexible microtiter plate (Falcon, Oxnard, Calif.) were coated with capturing monoclonal antibody (anti-IFN-γ; Pharmingen, San Diego, Calif.) to the cytokine being assayed. The plate was incubated overnight at 4° C. and was washed with a solution of phosphate buffer saline, […] and 1% BSA (wash buffer) and blocked with PBS plus 1% BSA (PBS-BSA). The plate was incubated for 1 hour room temperature and washed. Samples were added to the wells and the plate was incubated for 3 hours at room temperature. The plate was washed 3 times and into each well 100 μl of 1.0 μg/ml of biotinylated-detecting monoclonal anti-IFN-γ antibody (Pharmingen) was added. The plate was incubated for 1 hour and washed 3 times. Strepavidin-β-galactosidase (Gibco/BRL), 100 μl, was added to the wells and the plate was incubated for 30 min and washed 5 times. The substrate chlorophenyl-red-β-D-galactoside (CPRG: Calbiochem, San Diego, Calif.) was added to the wells and color was allowed to develop for 30 min. The optical density of the converted CPRG was read on a standard ELISA plate reader at a wavelength of 570 nm. The INF-γ concentration of the standard samples were plotted against their OD to create a standard curve. Using this standard curve, the concentration of INF-γ in the assayed culture supernatant was determined from the OD of the test well and sample dilution factor.
α-MSH treatment of primed T cells. […] The cells were collected onto filter paper using a Tomtec Plate Harvester 96, and radiolabel was measured using a Wallac 1205 Betaplate Liquid Scintillation Counter. […]
In FIG. 16A, proliferation was measured by adding to the T cell cultures 3H-thymidine 24 hours after activation and measuring the counts per minute (CPM) 24 hours later. In FIG. 16(B-D), lymphokine production was measured by assaying the 48 hour culture supernatants by sandwich ELISA for IFN-γ, IL-4, and IL-10. […]

[1] = TCR-stimulated in the presence of α-MSH

Substance: α-melanocyte stimulating hormone (SYSMEHFRWGKPV; not fully specified; ends and bridges not checked; UniProt P01189 138-150, looked up) [α-MSH, synthetic α-MSH (Peninsula Laboratories); thirteen-amino acid neuropeptide derived from POMC]
- IL-4 in culture supernatant [1]: no effect; also recorded: no IL-4 was detected
- IL-10 production [1]: suppressed
- IFN-γ production by TCR-stimulated primed T cells (versus T cells TCR-stimulated in the absence of α-MSH): significantly (p=0.05) suppressed
